From ChEMBL document CHEMBL4190376, “Mapping the Efficiency and Physicochemical Trajectories of Successful Optimizations” (J Med Chem, 2018)
Converted amounts (≈) assume the structure as drawn.

How the values were obtained:
[1] = Ratio of drug level in rat liver to plasma; type: ADME
[2] = Oral bioavailability in rat; type: ADME, organism-based; conditions: in vivo
[3] = Lipophilicity, log D of the compound at pH 7.4 by chromatographic method; type: physicochemical; conditions: buffer
physchem = conditions: aqueous
[4] = Oral bioavailability in human; type: ADME, organism-based; conditions: in vivo
[5] = Solubility of the compound in FaSSIF; type: physicochemical
[6] = Solubility of the compound in pH 7.4 solution; type: physicochemical

**Q.** Which Kp [1] does the source give for `COC(=O)N[C@H](C(=O)N1CCC[C@H]1c1nc(-c2ccc(-c3ccc(-c4c[nH]c([C@@H]5CCCN5C(=O)[C@@H](NC(=O)OC)C(C)C)n4)cc3)cc2)c[nH]1)C(C)C` here?
**A.** The Kp was 5.

**Q.** What about the bioavailability [2] of the same molecule?
**A.** The bioavailability was 50%.

**Q.** Which chromatographic logD [3] does the source give for `COc1cc2c(cc1Cc1cccc(Cl)c1F)c(=O)c(C(=O)O)cn2[C@H](CO)C(C)C` here?
**A.** Its chromatographic logD is 6.4.

**Q.** With `CCC[C@H](NC(=O)[C@@H]1[C@H]2CCC[C@H]2CN1C(=O)[C@@H](NC(=O)[C@@H](NC(=O)c1cnccn1)C1CCCCC1)C(C)(C)C)C(=O)C(=O)NC1CC1` as the molecule, how does the solubility (physchem) read?
**A.** The solubility was 4.7 µg/mL (≈ 6.91 µM).

**Q.** For `Cc1nnc(C(=O)NC(C)(C)c2nc(C(=O)NCc3ccc(F)cc3)c(O)c(=O)n2C)o1`, which chromatographic logD [3] is on record?
**A.** The chromatographic logD was 3.3.

**Q.** With `Cc1nnc(C(C)C)n1C1C[C@@H]2CC[C@@H](C1)N2CC[C@H](NC(=O)C1CCC(F)(F)CC1)c1ccccc1` (some centres undefined) as the molecule, how does the bioavailability [4] read?
**A.** The bioavailability was 23%.

**Q.** With `C[C@@H]1CCO[C@H]2Cn3cc(C(=O)NCc4ccc(F)cc4F)c(=O)c(O)c3C(=O)N12` [DOLUTEGRAVIR] as the molecule, how does the chromatographic logD [3] read?
**A.** The chromatographic logD was 3.7.

**Q.** What does the source list for `CC1(C)CCC(CN2CCN(c3ccc(C(=O)NS(=O)(=O)c4ccc(NCC5CCOCC5)c([N+](=O)[O-])c4)c(Oc4cnc5[nH]ccc5c4)c3)CC2)=C(c2ccc(Cl)cc2)C1` [VENETOCLAX]?
**A.** solubility [5]: 11 µg/mL (≈ 12.7 µM); solubility [6]: 0.4 µg/mL (≈ 0.461 µM)
